Patent US12673946B2, “Pyrimidin-4(3H)-one derivatives as TRPV4 antagonists” (RaQualia Pharma Inc., priority 2020, dated 2026)

Biological target: T1, human TRPV4 (Homo sapiens, UniProt Q9HBA0)
T1 construct: host or cells: tetracycline-inducible Flp-In T-REx 293 cells
Experiment: Hypotonicity-induced Ca2+ influx (Fluo-4, FDSS)
Format: cell-based
Procedure: Hypotonicity-Induced Ca^2+ Influx
TRPV4 channel activation/opening results in an influx of Ca^2+ (Liedtke, W. et al., 2000 (NPL 1)). The resulting changes in intracellular calcium are monitored using a Ca^2+ sensitive fluorescent dye Fluo-4 (Invitrogen). Dye loaded cells are treated with the test compounds for 5 minutes prior to the addition of a hypotonic solution and the inhibition of the hypotonicity-induced activation is recorded.
Forty microL of tetracycline-inducible Flp-In T-REx 293 cells (Invitrogen) stably expressing human TRPV4 are seeded onto the poly-D-lysine coated 384-well plate (Corning) at a density of 10,000 cells per well. The following day, TRPV4 expression is induced by adding 0.5 microg/mL tetracycline for 20-24 hours. On the day of the experiment, the media is removed and replaced with 40 microL of dye loading buffer [1 microM Fluo-4 AM (Invitrogen), 0.01% Pluronic F-127, and 20 mM HEPES in Hanks' balanced salt solutions (HBSS; Invitrogen)] and then the cells are incubated for 60 minutes at 25° C. Dye is then removed and replaced with 20 microL of assay buffer (20 mM HEPES in HBSS). Five minutes prior to the fluorescence measurement, 10 microL of test compound is added to the cells. Using the FDSS instrument (Hamamatsu Photonics), 30 microL of hypotonic solution (90 mM D-mannitol and 1.26 mM CaCl2 in ultrapure water) is added 30 seconds after the start of measurement. The calcium flux signal is recorded for a total of 4.5 minutes.

[1] = Flp-In T-REx 293 cells expressing human TRPV4, examples listed under heading 'Human IC50<50 nM'
[2] = Flp-In T-REx 293 cells stably expressing human TRPV4, compounds listed by potency bin (<10 nM Tables 96-1/96-2, <3 nM Table 97)

T1 sequence (Q9HBA0 whole entry): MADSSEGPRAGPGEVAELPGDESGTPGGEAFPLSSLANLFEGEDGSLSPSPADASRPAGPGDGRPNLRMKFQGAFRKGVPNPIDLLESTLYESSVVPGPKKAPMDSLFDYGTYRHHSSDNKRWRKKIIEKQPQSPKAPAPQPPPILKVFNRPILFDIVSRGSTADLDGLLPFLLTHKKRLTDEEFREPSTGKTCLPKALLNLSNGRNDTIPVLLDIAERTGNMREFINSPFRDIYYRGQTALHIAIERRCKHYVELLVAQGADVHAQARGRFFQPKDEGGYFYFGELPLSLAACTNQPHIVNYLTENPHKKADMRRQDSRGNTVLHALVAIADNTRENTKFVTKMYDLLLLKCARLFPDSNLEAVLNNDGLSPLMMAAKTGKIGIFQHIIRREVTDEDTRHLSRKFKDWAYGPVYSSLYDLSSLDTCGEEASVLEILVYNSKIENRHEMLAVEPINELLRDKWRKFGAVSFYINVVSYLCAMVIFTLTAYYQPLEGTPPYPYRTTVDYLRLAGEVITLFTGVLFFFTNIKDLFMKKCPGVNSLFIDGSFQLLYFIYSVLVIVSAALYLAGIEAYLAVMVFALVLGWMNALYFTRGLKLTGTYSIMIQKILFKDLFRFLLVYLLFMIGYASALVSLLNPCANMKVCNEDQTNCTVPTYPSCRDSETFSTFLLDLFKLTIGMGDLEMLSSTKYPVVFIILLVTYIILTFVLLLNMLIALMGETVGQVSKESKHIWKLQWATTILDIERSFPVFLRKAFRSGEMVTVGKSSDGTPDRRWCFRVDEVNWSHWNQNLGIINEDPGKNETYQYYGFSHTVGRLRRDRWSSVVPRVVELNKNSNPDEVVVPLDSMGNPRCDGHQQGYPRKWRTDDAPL

Row | IC50 [1] | IC50 [2] | SMILES
1 | < 50 nM | < 3 nM | COc1cc(-c2cccc(C3(c4nc5c(c(=O)[nH]4)CN(C(=O)[C@H](O)c4cccc(Cl)c4)CCC5)CC3)c2)ccn1 [40-14]
2 | < 50 nM | < 3 nM | O=C(C(O)c1cccc(-c2cccc(OC(F)(F)F)c2)c1)N1CCCc2nc(C3(c4cncc(-c5ccccc5)c4)CC3)[nH]c(=O)c2C1 (stereo not shown) [56-1]
3 | < 50 nM | – | O=C([C@H](O)c1cccc(C(F)(F)F)c1)N1CCc2nc(C3(c4cc(-c5cccnc5)cs4)CC3)[nH]c(=O)c2C1 [36-2]
4 | < 50 nM | – | O=C(C(O)c1cccc(-c2ccccc2F)c1)N1CCc2nc(C3(c4ccccc4)CC3)[nH]c(=O)c2C1 (stereo not shown) [44-43]
5 | < 50 nM | < 10 nM | O=C(C(O)c1cccc(-c2cccc(SC(F)(F)F)c2)c1)N1CCc2nc(C3(c4ccccc4)CC3)[nH]c(=O)c2C1 (stereo not shown) [44-18]
6 | < 50 nM | < 10 nM | O=C([C@H](O)c1cccc(-c2ccc(OCc3ccccc3)nc2)c1)N1CCc2nc(C3(c4ccccc4)CC3)[nH]c(=O)c2C1 [44-83]
7 | < 50 nM | < 10 nM | O=C(Cc1ccccc1Oc1ccccc1)N1CCCc2nc(C3(c4cccc(Cl)c4)CC3)[nH]c(=O)c2C1 [17-139]
8 | < 50 nM | < 3 nM | N#Cc1cccc(-c2cccc(C3(c4nc5c(c(=O)[nH]4)CN(C(=O)[C@H](O)c4cccc(C(F)(F)F)c4)CCC5)CC3)c2)c1 [42-5]
9 | < 50 nM | < 3 nM | O=C([C@H](O)c1cccc(Cl)c1)N1CCCc2nc(C3(c4cccc(C5CCC(F)(F)CC5)c4)CC3)[nH]c(=O)c2C1 [29-4]
10 | < 50 nM | – | O=C(C(O)c1cccc(Oc2ccccc2)c1)N1CCCc2nc(C3(c4ccccc4)CC3)[nH]c(=O)c2C1 (stereo not shown) [17-85]
11 | < 50 nM | < 10 nM | CC(C)c1csc(C2(c3nc4c(c(=O)[nH]3)CN(C(=O)C(O)c3cccc(C(F)(F)F)c3F)CC4)CC2)c1 (stereo not shown) [15-26]
12 | < 50 nM | < 10 nM | CN(C)S(=O)(=O)c1ccc(-c2cccc(C3(c4nc5c(c(=O)[nH]4)CN(C(=O)[C@H](O)c4cccc(C(F)(F)F)c4)CCC5)CC3)c2)cc1 [42-18]
13 | < 50 nM | < 10 nM | CC(C)(C)c1cc(-c2cccc([C@@H](O)C(=O)N3CCc4nc(C5(c6ccccc6)CC5)[nH]c(=O)c4C3)c2)cc(C(C)(C)C)c1 [44-103]
14 | < 50 nM | – | CC(C)(C)c1cccc(CC(=O)N2CCCc3nc(C4(c5ccccc5)CC4)[nH]c(=O)c3C2)c1 [17-142]
15 | < 50 nM | – | CC(C)c1cccc(C2(c3nc4c(c(=O)[nH]3)CN(C(=O)Cc3cccc(-c5cccc(Cl)c5)c3)CC4)CC2)c1 [27-5]
16 | < 50 nM | – | O=C([C@H](O)c1cccc(Cl)c1)N1CCCc2nc(C3(c4cc(-c5cccnc5)cs4)CC3)[nH]c(=O)c2C1 [39-3]
17 | < 50 nM | < 10 nM | N#Cc1ccccc1-c1cccc(C2(c3nc4c(c(=O)[nH]3)CN(C(=O)[C@H](O)c3cccc(C(F)(F)F)c3)CCC4)CC2)c1 [42-63]
18 | < 50 nM | < 3 nM | Cc1cc(-c2cccc([C@@H](O)C(=O)N3CCCc4nc(C5(c6cccc(Cl)c6)CC5)[nH]c(=O)c4C3)c2)ccc1Cl [50-19]
19 | < 50 nM | – | O=C([C@H](O)c1cccc(-c2ccc3c(c2)CCO3)c1)N1CCc2nc(C3(c4ccccc4)CC3)[nH]c(=O)c2C1 [44-116]
20 | < 50 nM | < 3 nM | O=C([C@H](O)c1cccc(Cl)c1)N1CCCc2nc(C3(c4cccc(Oc5ccccc5)c4)CC3)[nH]c(=O)c2C1 [17-73]
21 | < 50 nM | < 10 nM | O=C(Cc1cccc(C(F)(F)F)c1)N1CCCc2nc(C3(c4cccc(Cl)c4)CC3)[nH]c(=O)c2C1 [17-110]
22 | < 50 nM | < 10 nM | O=C(C(O)c1cccc(-c2ccc(Cl)cc2)c1)N1CCCc2nc(C3(c4cccc(Cl)c4)CC3)[nH]c(=O)c2C1 (stereo not shown) [17-17]
23 | < 50 nM | – | O=C(Cc1cccc(C(F)(F)F)c1)N1CCCc2nc(C3(c4ccccc4)CC3)[nH]c(=O)c2C1 [17-51]
24 | < 50 nM | < 10 nM | O=C([C@H](O)c1cccc(C(F)(F)F)c1)N1CCCc2nc(C3(c4cccc(C5=CCN(C(=O)C6(C(F)(F)F)CC6)CC5)c4)CC3)[nH]c(=O)c2C1 [42-72]
25 | < 50 nM | < 3 nM | O=C(C(O)c1cccc(Cl)c1F)N1CCCc2nc(C3(c4cccc(Cl)c4)CC3)[nH]c(=O)c2C1 (stereo not shown) [17-7]
26 | < 50 nM | < 3 nM | O=C([C@H](O)c1cccc(-c2ccnc(C(F)(F)F)c2)c1)N1CCCc2nc(C3(c4ccccc4)CC3)[nH]c(=O)c2C1 [49-17]

Row | IC50 [1] | IC50 [2] | SMILES
27 | < 50 nM | – | CN(C)Cc1cccc(-c2cccc(C3(c4nc5c(c(=O)[nH]4)CN(C(=O)[C@H](O)c4cccc(C(F)(F)F)c4)CCC5)CC3)c2)c1 [42-36]
28 | < 50 nM | < 10 nM | O=C([C@H](O)c1cccc(Cl)c1)N1CCc2nc(C3(c4cncc(C5CCC(F)(F)CC5)c4)CC3)[nH]c(=O)c2C1 [25-4]
29 | < 50 nM | < 10 nM | O=C(C(O)c1ccccc1Oc1ccccc1)N1CCCc2nc(C3(c4cccc(Cl)c4)CC3)[nH]c(=O)c2C1 (stereo not shown) [17-22]
30 | < 50 nM | – | O=C([C@H](O)c1cccc(Cl)c1)N1CCc2nc(C3(c4cc(-c5ccccc5)cs4)CC3)[nH]c(=O)c2C1 [6-21]
31 | < 50 nM | < 10 nM | N#Cc1ccc(-c2cccc(C3(c4nc5c(c(=O)[nH]4)CN(C(=O)[C@H](O)c4cccc(C(F)(F)F)c4)CCC5)CC3)c2)cc1F [42-67]
32 | < 50 nM | < 10 nM | O=C([C@H](O)c1cccc(C(F)(F)F)c1)N1CCCc2nc(C3(c4cccc(C5=CCC(C(F)(F)F)CC5)c4)CC3)[nH]c(=O)c2C1 (stereo partly shown) [42-35]
33 | < 50 nM | < 3 nM | O=C(NC1CCCCC1)N1CC=C(c2cccc(C3(c4nc5c(c(=O)[nH]4)CN(C(=O)[C@H](O)c4cccc(C(F)(F)F)c4)CCC5)CC3)c2)CC1 [42-84]
34 | < 50 nM | < 10 nM | CC(C)c1cccc(C2(c3nc4c(c(=O)[nH]3)CN(C(=O)C(O)c3cccc(Cl)c3F)CC4)CC2)c1 (stereo not shown) [14-110]
35 | < 50 nM | < 10 nM | O=C([C@H](O)c1cccc(C(F)(F)F)c1)N1CCCc2nc(C3(c4cccc(-c5cnco5)c4)CC3)[nH]c(=O)c2C1 [42-30]
36 | < 50 nM | < 10 nM | CNc1cc(-c2cccc(C3(c4nc5c(c(=O)[nH]4)CN(C(=O)[C@H](O)c4cccc(C(F)(F)F)c4)CCC5)CC3)c2)ccn1 [42-32]
37 | < 50 nM | < 10 nM | CC(C)c1csc(C2(c3nc4c(c(=O)[nH]3)CN(C(=O)C(F)(F)c3cccc(Cl)c3F)CCC4)CC2)c1 [21-6]
38 | < 50 nM | < 3 nM | O=C([C@H](O)c1cccc(C(F)(F)F)c1)N1CCCc2nc(C3(c4cccc(OC(F)(F)F)c4)CC3)[nH]c(=O)c2C1 [17-6]
39 | < 50 nM | < 10 nM | O=C(C(O)c1cccc(-c2cccc(C(F)(F)F)c2)n1)N1CCc2nc(C3(c4ccccc4)CC3)[nH]c(=O)c2C1 (stereo not shown) [48-1]
40 | < 50 nM | < 10 nM | CC(C)(C)c1cccc(-c2cccc([C@@H](O)C(=O)N3CCCc4nc(C5(c6cccs6)CC5)[nH]c(=O)c4C3)c2)c1 [53-4]
41 | < 50 nM | < 3 nM | O=C([C@H](O)c1cccc(-c2cc3ccccc3o2)c1)N1CCc2nc(C3(c4ccccc4)CC3)[nH]c(=O)c2C1 [44-84]
42 | < 50 nM | < 3 nM | O=C(Cc1cccc(-c2cccc(OC(F)(F)F)c2)c1)N1CCCc2nc(C3(c4ccccc4)CC3)[nH]c(=O)c2C1 [57-2]
43 | < 50 nM | < 10 nM | CN(Cc1cccc2ccccc12)C(=O)c1csc(C2(c3nc4c(c(=O)[nH]3)CN(C(=O)[C@H](O)c3cccc(C(F)(F)F)c3)CCC4)CC2)c1 [59-10]
44 | < 50 nM | < 3 nM | O=C([C@H](O)c1cccc(-c2ccc3c(c2)OC(F)(F)O3)c1)N1CCCc2nc(C3(c4ccccc4)CC3)[nH]c(=O)c2C1 [49-39]
45 | < 50 nM | < 3 nM | O=C([C@H](O)c1cccc(-c2ccc(OCc3ccccc3)nc2)c1)N1CCCc2nc(C3(c4ccccc4)CC3)[nH]c(=O)c2C1 [49-38]
46 | < 50 nM | < 3 nM | CC(C)c1csc(C2(c3nc4c(c(=O)[nH]3)CN(C(=O)[C@H](O)c3cccc(C(F)(F)F)c3)CC4)CC2)c1 [15-2]
47 | < 50 nM | < 10 nM | Cc1cc(C)cc(-c2cccc([C@@H](O)C(=O)N3CCCc4nc(C5(c6ccccc6)CC5)[nH]c(=O)c4C3)c2)c1 [49-49]
48 | < 50 nM | < 10 nM | O=C(Cc1cccc(-c2ccc(OC(F)(F)F)cc2)c1)N1CCCc2nc(C3(c4ccccc4)CC3)[nH]c(=O)c2C1 [17-134]
49 | < 50 nM | – | O=C(C(O)c1cccc(C(F)(F)F)c1F)N1CCc2nc(C3(c4cccc(Cl)c4)CC3)[nH]c(=O)c2C1 (stereo not shown) [14-20]
50 | < 50 nM | < 10 nM | O=C([C@H](O)c1cccc(-c2ccc(Cl)c(Cl)c2)c1)N1CCc2nc(C3(c4ccccc4)CC3)[nH]c(=O)c2C1 [44-101]
51 | < 50 nM | < 10 nM | O=C([C@H](O)c1cccc(C(F)(F)F)c1)N1CCCc2nc(C3(c4cccc(-c5ccc6sccc6c5)c4)CC3)[nH]c(=O)c2C1 [17-96]
